Consider one substance from patent US11225642B2, “Method for producing renal progenitor cells” (KYOTO UNIVERSITY, priority 2013, dated 2022).

In the test the test system is OSR1-GFP & SIX2-tdTomato reporter human iPS cell line (4A6C3-10). As to the kind of experiment: SIX2-positive cell induction method 4, OSR1+SIX2+ cell rate by flow cytometer. Type of test: cell-based. Here is the method: 4A6C3-10 was cultured at 37° C. in a 2% to 5% CO2 atmosphere to become 70% to 80% confluent on 10-cm dishes containing a primate ES medium (ReproCELL) supplemented with 500 U/ml penicillin/streptomycin (Invitrogen) and 5 ng/ml recombinant human basic fibroblast growth factor (bFGF, Wako) with the use of ICR-mouse-embryo (fetus 12.5 days old)-derived mouse embryonic fibroblasts (MEF) or SNL feeder cells (McMahon, A. P. and Bradley, A. (1990) Cell 62; 1073-1085) (these cells being previously treated with 15.5 μg/ml mitomycin (Kyowa Hakko Kirin Co., Ltd.) for 2 to 3 hours and seeded at a density of 2×10^5 cells/6-cm dish) as feeder cells. The 10-cm plates containing the cells were rinsed with PBS and treated with a CTK solution (PBS containing 0.25% Trypsin (Invitrogen), 0.1% Collagenase IV (Invitrogen), 20% KnockOut SR (KSR, Invitrogen), and 1 mM CaCl2) at 37° C. for 4 minutes. The CTK solution was removed by rinsing with PBS. Then, the medium was exchanged with DMEM/F12+Glutamax (Invitrogen) containing 0.1 mM MEM NEAA (Invitrogen), 1000 U/ml penicillin/streptomycin, 0.55 mM 2-mercaptoethanol (Invitrogen), and 20% KSR. Subsequently, the cells were scraped using a cell scraper and seeded on 6-cm plates coated with 0.2% gelatin to remove feeder cells. One hour later, the cells were washed with DMEM/F12+Glutamax [stage-1 medium] containing 500 U/ml penicillin/streptomycin and 2% FBS (HyClone), transferred to ultra-low attachment dishes (Corning 3471) having a stage-1 medium containing 100 ng/ml recombinant human/mouse/rat Activin A (R&D Systems) and 1 μM CHIR99021, and cultured at 37° C. in a 5% CO2 atmosphere for 2 days.
In order to differentiate into the intermediate mesoderm, the cell mass (embryoid body (EB)) obtained at stage 1 was transferred to a 24-well plate coated with Synthemax II (Corning), the medium was exchanged with DMEM/F12+Glutamax containing 0.1 mM MEM NEAA, 500 U/ml penicillin/streptomycin, 0.55 mM 2-mercaptoethanol, 10% KSR, 100 ng/ml BMP7 (recombinant human BMP7, R&D Systems), and 1 μM CHIR99021, and the cells were cultured at 37° C. in a 5% CO2 atmosphere for 3 days.
After stage 2, the medium was exchanged with DMEM/F12+Glutamax containing 0.1 mM MEM NEAA, 500 U/ml penicillin/streptomycin, 0.55 mM 2-mercaptoethanol, 10% KSR, 1 μM TTNPB (Sigma T3757), and 5 ng/ml TGFβ1 (Peprotech), followed by culturing at 37° C. in a 5% CO2 atmosphere for 5 days. The medium was exchanged with a medium having the same conditions two days after the start of culture (i.e., day 8 from the start of stage 1 (day 1)).
After stage 3, the medium was exchanged with DMEM/F12+Glutamax containing 0.1 mM MEM NEAA, 500 U/ml penicillin/streptomycin, 0.55 mM 2-mercaptoethanol, 10% KSR, 5 ng/ml TGFβ1, and 0.5 μM DMH1 (Tocris), followed by culturing at 37° C. in a 5% CO2 atmosphere for 17 days (i.e., culturing for 28 days in total from the start of stage 1 (day 1); FIG. 3A). In this case, the medium was exchanged every 3 days with a medium having the same conditions. […] In addition, the OSR1^+SIX2^+ cell rate reached the maximum level on day 25 of culture and then it was confirmed to be maintained until day 28 of culture (FIG. 3D).
Induction of OSR1^+SIX2^+ cells from the 4A6C3-10 iPS cell line was examined using different combinations of TGFβ signaling activators and BMP inhibitors. Specifically, induction of OSR1^+SIX2^+ cells from 4A6C3-10 was examined under conditions 1) to 10) described below. […]

For “TGFβ1: TGFβ signaling activator protein (Peprotech)”, for the setting “Example 8, comparison of combinations of TGFβ signaling activators and BMP inhibitors at stage 4 (FIG. 4)”, the “induction of OSR1+SIX2+ cells” value is given as “effective”. Besides, the “OSR1-positive and SIX2-positive (OSR1+SIX2+) cell rate” value (induction method 4, stage 4 medium with 5 ng/ml TGFβ1 and 0.5 μM DMH1, day 28 of culture) is 32.8%.
